Where two headings read alike, the source gives them in different places.
Legend:
recombinant human PAI-1 [1] = molecular target: T1, recombinant human PAI-1 (Homo sapiens, UniProt P05121); experiment: Test Example 2: Human PAI-1 Inhibitory Activity (pH 7.4 HEPES buffer, 10 minutes incubation with two-chain tPA); format: biochemical; design: purchased Molecular Innovations, Inc; conditions: read-out: Inhibition Rate of PAI-1 Activity (%)
Description: 0.1 M HEPES, 0.1 M NaCl. 1 mM EDTA. 0.1 % Polyethylene glycol 8,000 (Hampton Research Corporation),
2 mM Dimethyldecylphoshine oxide [Apo-10] (Fluka Corporation)

recombinant rat PAI-1 = molecular target: T2, recombinant rat PAI-1 (Rattus norvegicus, UniProt P20961); experiment: biochemical; conditions: read-out: Inhibition Rate of PAI-1 Activity (%)
T2 sequence (P20961 24-402): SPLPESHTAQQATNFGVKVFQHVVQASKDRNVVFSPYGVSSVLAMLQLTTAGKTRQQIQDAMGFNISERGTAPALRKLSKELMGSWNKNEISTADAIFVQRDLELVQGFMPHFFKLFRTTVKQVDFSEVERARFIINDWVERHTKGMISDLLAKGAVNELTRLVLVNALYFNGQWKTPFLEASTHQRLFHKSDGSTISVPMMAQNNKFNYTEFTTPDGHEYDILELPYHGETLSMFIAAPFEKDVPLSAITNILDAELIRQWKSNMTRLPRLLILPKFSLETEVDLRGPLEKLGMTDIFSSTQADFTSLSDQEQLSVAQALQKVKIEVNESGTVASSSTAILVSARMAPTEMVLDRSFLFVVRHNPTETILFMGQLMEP

recombinant human PAI-1 [2] = molecular target: T1, recombinant human PAI-1; experiment: biochemical
Description: To this solution, 6 µl of 80 nM recombinant human PAI-1 (Molecular Innovations, Inc.) solution prepared with Tris buffer was added, and the plate was incubated for 5 minutes at room temperature. Furthermore, 30 µl of 800 IU/ml two-chain tPA (Activity Standard; American diagnostica, inc.) prepared with Tris buffer was added, and the mixed solution was incubated for 15 minutes at room temperature. Then, 30 µl of 400 µM fluorogenic substrate (Pyr-Gly-Arg-MCA; Peptide Institute, Inc.) for tPA prepared with Tris buffer was added and reacted for 30 minutes at room temperature.
50 mM Tris, 150 mM NaCl, 10 µg/ml BSA, 0.01 % Tween80 (SIGMA-ALDRICH Corporation)

[3] = read-out: Inhibition Rate of PAI-1 Activity (%), Compound Concentration 5µM
[4] = read-out: Inhibition Rate of PAI-1 Activity (%), Compound Concentration 10µM
[5] = read-out: Inhibition Rate of PAI-1 Activity (%), Compound Concentration 25µM
[6] = read-out: Inhibition Rate of PAI-1 Activity (%)

T1 sequence (P05121 24-402): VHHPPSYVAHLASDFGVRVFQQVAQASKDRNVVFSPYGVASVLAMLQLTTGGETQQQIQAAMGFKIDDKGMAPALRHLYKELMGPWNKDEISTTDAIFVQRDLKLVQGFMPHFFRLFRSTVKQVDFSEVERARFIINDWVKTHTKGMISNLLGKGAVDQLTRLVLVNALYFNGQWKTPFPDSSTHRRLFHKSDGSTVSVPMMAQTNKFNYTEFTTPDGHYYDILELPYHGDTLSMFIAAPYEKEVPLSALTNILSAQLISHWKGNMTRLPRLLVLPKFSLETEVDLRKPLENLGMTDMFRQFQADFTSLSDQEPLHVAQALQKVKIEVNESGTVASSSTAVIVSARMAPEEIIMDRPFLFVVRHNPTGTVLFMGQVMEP

| Compound | inhibition at 0.1 µM (recombinant human PAI-1 [1]) [%] | inhibition at 0.3 µM (recombinant human PAI-1 [1]) [%] | inhibition at 1 µM (recombinant human PAI-1 [1]) [%] | inhibition at 3 µM (recombinant human PAI-1 [1]) [%] | inhibition at 0.3 µM (recombinant rat PAI-1) [%] | inhibition at 1 µM (recombinant rat PAI-1) [%] | inhibition at 3 µM (recombinant rat PAI-1) [%] | inhibition at 10 µM (recombinant rat PAI-1) [%] | inhibition at 5 µM (recombinant human PAI-1 [2]; read-out: Inhibition Rate of PAI Activity (%), Compound Concentration 5µM) [%] | inhibition at 10 µM (recombinant human PAI-1 [2]; read-out: Inhibition Rate of PAI Activity (%), Compound Concentration 10µM) [%] | inhibition at 5 µM (recombinant human PAI-1 [2]; [3]) [%] | inhibition at 10 µM (recombinant human PAI-1 [2]; [4]) [%] | inhibition at 25 µM (recombinant human PAI-1 [2]; [5]) [%] | inhibition at 5 µM (recombinant human PAI-1 [2]; [6]) [%] | inhibition at 10 µM (recombinant human PAI-1 [2]; [6]) [%] | inhibition at 25 µM (recombinant human PAI-1 [2]; [6]) [%] |
| --- | --- | --- | --- | --- | --- | --- | --- | --- | --- | --- | --- | --- | --- | --- | --- | --- |
| CC(C)(C)c1ccc(COc2ccc(-c3ccc(OC(F)(F)F)cc3)cc2CC(=O)O)cc1 [Compound 9] | 0 | 6 | 25 | 98 | 0 | 15 | 71 | 96 | 90 | 99 |  |  |  |  |  |  |
| CC(C)c1ccc(Oc2ccc(CCC(=O)O)c(Oc3ccc(C(C)C)cc3)c2)cc1 [Compound 73] | 0 | 6 | 27 | 98 | 0 | 13 | 75 | 98 |  |  | 30 | 66 | > 99 |  |  |  |
| CC(C)(C)c1ccc(COc2cc(-c3ccc(OC(F)(F)F)cc3)ccc2CCC(=O)O)cc1 [Compound 76] | 10 | 12 | 37 | 99 | 0 | 6 | 56 | 86 |  |  |  |  |  | 24 | 54 | 98 |
| CC(C)(C)c1ccc(COc2cccc(Oc3ccc(OC(F)(F)F)cc3)c2CCC(=O)O)cc1 [Compound 86] | 0 | 0 | 22 | 87 | 0 | 12 | 34 | 69 |  |  | 47 | 80 | 98 |  |  |  |
| CC(C)(C)c1ccc(COc2c(CCC(=O)O)cccc2-c2ccc(OC(F)(F)F)cc2)cc1 [Compound 88] | 0 | 5 | 25 | 97 | 0 | 0 | 51 | 83 |  |  |  |  |  | 42 | 83 | 97 |
| CC(C)(C)c1ccc(Oc2cccc(-c3ccc(OC(F)(F)F)cc3)c2CCC(=O)O)cc1 [Compound 94] | 0 | 3 | 24 | 96 | 0 | 15 | 45 | 91 |  |  | 56 | 90 | 97 |  |  |  |
| CC(C)(C)c1ccc(COc2ccc(Oc3ccc(OC(F)(F)F)cc3)cc2CCC(=O)O)cc1 [Compound 96] | 6 | 7 | 26 | 96 | 3 | 14 | 49 | 96 |  |  | 36 | 75 | 99 |  |  |  |
| O=C(O)CCc1c(Oc2ccc(OC(F)(F)F)cc2)cccc1Oc1ccc(OC(F)(F)F)cc1 [Compound 98] | 0 | 2 | 25 | 84 | 0 | 10 | 39 | 95 |  |  | 57 | 84 | 98 |  |  |  |
| CC(C)(C)c1ccc(Oc2cccc(-c3ccc(OC(F)(F)F)cc3)c2OCC(=O)O)cc1 [Compound 113] | 0 | 6 | 26 | 73 | 0 | 9 | 33 | 99 |  |  | 58 | 85 | 97 |  |  |  |
| CC(C)(Oc1cc(-c2ccc(OC(F)(F)F)cc2)ccc1OCCCCc1ccccc1)C(=O)O [Compound 116] | 0 | 0 | 15 | 89 | 2 | 12 | 43 | 98 |  |  |  |  |  | 56 | 81 | 91 |
| CC(C)(C)c1ccc(COc2c(OCC(=O)O)cccc2-c2ccc(OC(F)(F)F)cc2)cc1 [Compound 117] | 2 | 7 | 46 | > 99 | 0 | 7 | 63 | 94 |  |  | 63 | 91 | 96 |  |  |  |
| CC(C)(C)c1ccc(CN(C(=O)C(=O)O)c2ccc(-c3ccc(OC(F)(F)F)cc3)cc2Cl)cc1 [Compound 147] | 0 | 7 | 35 | 99 | 0 | 14 | 70 | 87 |  |  | 38 | 80 | 92 |  |  |  |
| CC(C)(C)c1ccc(CN(C(=O)C(=O)O)c2cc(C(F)(F)F)ccc2-c2ccc(OC(F)(F)F)cc2)cc1 [Compound 168] | 0 | 0 | 33 | 99 | 0 | 12 | 81 | 97 |  |  | 63 | 94 |  |  |  |  |
| CC(C)(C)c1ccc(CN(C(=O)C(=O)O)c2cccc(Oc3ccc(OC(F)(F)F)cc3)c2)cc1 [Compound 172] | 4 | 8 | 18 | 76 | 0 | 6 | 49 | 97 |  |  | 58 | 89 | 94 |  |  |  |
| CC(C)(C)c1ccc(COc2ccc(-c3ccc(OC(F)(F)F)cc3)cc2N(Cc2ccccc2)C(=O)C(=O)O)cc1 [Compound 179] | 1 | 19 | 68 | > 99 | 7 | 38 | > 99 | > 99 |  |  | 64 | 91 |  |  |  |  |
| CCCOc1ccc(-c2ccc(OC(F)(F)F)cc2)cc1N(Cc1ccc(C(C)(C)C)cc1)C(=O)C(=O)O [Compound 188] | 0 | 0 | 33 | 97 | 0 | 14 | 84 | > 99 |  |  | 73 | 91 | 91 |  |  |  |
| CC(C)(C)c1ccc(CN(C(=O)C(=O)O)c2ccc(Cl)cc2-c2ccc(OC(F)(F)F)cc2)cc1 [Compound 192] | 0 | 1 | 35 | > 99 | 0 | 8 | 76 | 96 |  |  | 80 | 95 | 94 |  |  |  |
| CCCCOc1ccc(N(Cc2ccc(C(C)(C)C)cc2)C(=O)C(=O)O)cc1-c1ccc(OC(F)(F)F)cc1 [Compound 193] | 2 | 5 | 34 | > 99 | 2 | 26 | 81 | 70 |  |  | 81 | 89 |  |  |  |  |
| CC(C)Oc1ccc(N(Cc2ccc(C(C)(C)C)cc2)C(=O)C(=O)O)cc1-c1ccc(OC(F)(F)F)cc1 [Compound 211] | 9 | 16 | 43 | 96 | 4 | 17 | 78 | 87 |  |  |  |  |  | 87 | 96 |  |
| CC(C)(Oc1c(Oc2ccc(C(C)(C)C)cc2)cccc1-c1ccc(OC(F)(F)F)cc1)C(=O)O [Compound 251] | 0 | 11 | 34 | 83 |  |  |  |  |  |  | 62 | 63 |  |  |  |  |
